What was measured:
Assay type in all cases: cell-based, human
PSN-1 = experiment: SRB colorimetric cytotoxicity assay, PSN-1; conditions: Homo sapiens, PSN1, 72 h, 72 hours treatment, pancreatic adenocarcinoma
Source text: (§1) The aim of this assay is to evaluate the in vitro cytostatic (ability to delay or arrest tumor cell growth) or cytotoxic (ability to kill tumor cells) activity of the samples being tested.
(§2) A colorimetric assay, using sulforhodamine B (SRB) reaction has been adapted to provide a quantitative measurement of cell growth and viability (following the technique described by V. Vichai and K. Kirtikara (2006) Nature Protoc. 1, 1112-1116.)
(§3) This form of assay employs 96-well cell culture microplates. All the cell lines used in this study were obtained from the American Type Culture Collection (ATCC), unless otherwise indicated, and derive from different types of human cancer.
(§4) Cells were maintained in Dulbecco's Modified Eagle Medium (DMEM) (for A549, HT-29 and MDA-MB-231) or RPMI (for PSN-1) supplemented with 10% Fetal Bovine Serum (FBS), 2 mM L-glutamine, 100 U/mL penicillin and 100 U/mL streptomycin at 37° C., 5% CO2 and 98% humidity. For the experiments, cells were harvested from subconfluent cultures using trypsinization and resuspended in fresh medium before counting and plating.
(§5) Cells were seeded in 96 well microtiter plates, at 5×10^3 cells per well in aliquots of 150 μL, and allowed to attach to the plate surface for 18 hours (overnight) in drug free medium. After that, one control (untreated) plate of each cell line was fixed (as described below) and used for time zero reference value. […] After 72 hours treatment, the antitumor effect was measured by using the SRB methodology: Briefly, cells were washed twice with PBS, fixed for 15 min in 1% glutaraldehyde solution at room temperature, rinsed twice in PBS, and stained in 0.4% SRB solution for 30 min at room temperature. Cells were then rinsed several times with 1% acetic acid solution and air-dried at room temperature. SRB was then extracted in 10 mM trizma base solution and the absorbance measured in an automated spectrophotometric plate reader at 490 nm. Effects on cell growth and survival were estimated by applying the NCI algorithm (Boyd M R and Pauli K D. Drug Dev Res. 1995, 34, 91-104).
(§6) Using the mean±SD of triplicates, a dose-response curve was automatically generated using nonlinear regression analysis to a 4-parameter logistic curve. Three reference parameters were calculated (NCI algorithm) by automatic interpolation: GI50=compound concentration that produces 50% cell growth inhibition, as compared to control cultures; TGI=total cell growth inhibition (cytostatic effect), as compared to control cultures, and LC50=compound concentration that produces 50% net cell killing (cytotoxic effect).

A549 = experiment: SRB colorimetric cytotoxicity assay, A549; conditions: Homo sapiens, A549, 72 h, 72 hours treatment, lung carcinoma (NSCLC)
Source text: as §1, §2, §3, §4, §5, §6

MDA-MB-231 = experiment: SRB colorimetric cytotoxicity assay, MDA-MB-231; conditions: Homo sapiens, MDA-MB-231, 72 h, 72 hours treatment, breast adenocarcinoma
Source text: as §1, §2, §3, §4, §5, §6

HT29 = experiment: SRB colorimetric cytotoxicity assay, HT29; conditions: Homo sapiens, HT-29, 72 h, 72 hours treatment, colorectal adenocarcinoma
Source text: as §1, §2, §3, §4, §5, §6

Structure (SMILES)	GI50 (PSN-1) [nM]	GI50 (A549) [nM]	GI50 (MDA-MB-231) [nM]	GI50 (HT29) [nM]
C=Cc1cc([C@@H](CCC)NC(=O)[C@]2(C)CSC(/C(C)=N/O)=N2)oc(=O)c1 [Compound 79]	477	424	344	397
CCC[C@@H](NC(=O)[C@]1(C)CSC(/C(C)=N/O)=N1)c1cc(O)cc(=O)[nH]1 [Compound 82]	355	1640	1120	491
CCC[C@@H](NC(=O)[C@]1(C)CSC(/C(C)=N/O)=N1)c1cc(OCCOCCOCCOCC)cc(=O)o1 [Compound 87]	7010	5690	6820	5500
CCC[C@@H](NC(=O)[C@]1(C)CSC(/C(C)=N/O)=N1)c1cc(O)cc(=O)o1 [Compound 88]	18800	20400	21800	11400
CCC[C@@H](NC(=O)[C@]1(C)CSC(/C(C)=N/O)=N1)c1cc(OCCCN)cc(=O)o1 [Compound 89]	6360	16500	5890	8950
CCC[C@@H](NC(=O)[C@@H]1CSC(/C(C)=N/O)=N1)c1cc(OC)cc(=O)o1 [Compound 92]	953	1550	953	1280
C=CCO/N=C(\C)C1=N[C@](C)(C(=O)N[C@H](CCC)c2cc(OC)cc(=O)o2)CS1 [Compound 93]	28.5	21.4	38	23.5
C#CCO/N=C(\C)C1=N[C@](C)(C(=O)N[C@H](CCC)c2cc(OC)cc(=O)o2)CS1 [Compound 94]	35.8	35.8	35.8	22.6
CCC[C@@H](NC(=O)[C@]1(C)CSC(/C(C)=N/OC(=O)COCCOCCOC)=N1)c1cc(OC)cc(=O)o1 [Compound 95]	33.2	20.3	44.3	40.6
CCC[C@@H](NC(=O)[C@]1(C)CSC(/C(C)=N/OCCOCCOCCOCC)=N1)c1cc(OC)cc(=O)o1 [Compound 96]	2220	1770	2950	1510
CCC[C@@H](NC(=O)[C@]1(C)CSC(/C(C)=N/OCCCNC(=O)OC(C)(C)C)=N1)c1cc(OC)cc(=O)o1 [Compound 97]	835	631	1150	594
CCC[C@@H](NC(=O)[C@]1(C)CSC(/C(C)=N/OCCCN)=N1)c1cc(OC)cc(=O)o1 [Compound 98]	27.4	22.1	34.2	25.1
CCC[C@@H](NC(=O)[C@]1(C)CSC(/C(C)=N/N)=N1)c1cc(OC)cc(=O)o1 [Compound 99]	920	578	657	447
CCC[C@@H](NC(=O)[C@]1(C)COC(/C(C)=N/O)=N1)c1cc(OC)cc(=O)o1 [Compound 106]	1560	1010	876	712
C=CCOc1cc([C@@H](CCC)NC(=O)[C@]2(C)CSC(/C(C)=N/O[C@H]3O[C@H](COC(C)=O)[C@@H](OC(C)=O)[C@H](OC(C)=O)[C@H]3OC(C)=O)=N2)oc(=O)c1 [Compound 107]	61	52.9	78.6	52.9
C=CCOc1cc([C@@H](CCC)NC(=O)[C@]2(C)CSC(/C(C)=N/O[C@H]3O[C@@H]4COC(C)(C)O[C@H]4[C@@H]4OC(C)(C)O[C@H]34)=N2)oc(=O)c1 [Compound 110]	56.9	43.1	78.5	36.9
